Test results as given in patent US20260250320A1, “LIPIDATED PEPTIDE INHIBITORS OF INTERLEUKIN-23 RECEPTOR” (Janssen Pharmaceutica NV, priority 2023, published 2026).
*1 amine or outer side, *2 acyl side, *3 side chain or, on linkers, in order; H or OH if unused. Where a SMILES comes first, the peptide text is derived from it. Bridges are numbered along the chain shown (N, C = ends). Side-chain parts run from the residue outwards. [ ]: non-standard residue; d: D form. The star is where a group is joined. X9 = O=C(O)CCCCCCCCCCCCCCCCC(=O)N[C@@H](CCC(=O)NCCOCCOCCOCCOCCOCCOCCOCCOCCOCCOCCOCCCCCC(=O)*)C(=O)O; X13 = O=C(O)CCCCCCCCCCCCCCCCC(=O)NCCOCCOCCOCCOCCOCCOCCOCCOCCOCCOCCOCCOCC(=O)*; Me3N+CH2CH2(OCH2CH2)4CO = C[N+](C)(C)CCOCCOCCOCCOCCC(=O)*; Me3N+(CH2)2O(CH2)2O(CH2)2CO = C[N+](C)(C)CCOCCOCCC(=O)*; Trp(7-Me,2,3-dihydro) = Cc1cccc2c1NCC2C[C@H](N)C(=O)O; Trp(7-Me) = Cc1cccc2c(C[C@H](N)C(=O)O)c[nH]c12; C20 diacid = O=C(O)CCCCCCCCCCCCCCCCCCC(=O)*; C18 diacid = O=C(O)CCCCCCCCCCCCCCCCC(=O)*; X6 = CN(CC[C@H](N[*:1])C(=O)[*:2])[*:3]; CH2CH2OCH2CH2NMe3+ = C[N+](C)(C)CCOCC*; γGlu = O=C(O)[C@H](CCC(=O)[*:2])N[*:1]; 2Nal = N[C@@H](Cc1ccc2ccccc2c1)C(=O)O; AEF = NCCOc1ccc(C[C@H](N)C(=O)O)cc1; X2 = C[N+](C)(C)C[C@@H](CC(=O)O)N*; 3Pal = N[C@@H](Cc1cccnc1)C(=O)O; Lys(Me) = CNCCCC[C@H](N)C(=O)O; NMeK = CN[C@@H](CCCCN)C(=O)O; Pen = CC(C)(S)[C@H](N)C(=O)O; Suc = O=C(CCC(=O)[*:2])[*:1]; Thp = NC1(C(=O)O)CCOCC1; X1 = C[N+](C)(C)CCCCC*; AEEA = NCCOCCOCC(=O)O; Sar = CNCC(=O)O

What was measured:
[1] = test system: IL-23-stimulated phosphorylated STAT3 in peripheral blood mononuclear cells (PBMCs); assay: PBMC pSTAT3 Assay; assay type: cell-based; settings: PBMCs from healthy donors; 30 min preincubation with peptide; IL-23 5 ng/mL for 30 min; phospho-STAT3 by MSD
Procedure: Cryopreserved peripheral blood mononuclear cells (PBMCs) from healthy donors were thawed and washed twice in ImmunoCult-XF T cell expansion medium (XF-TCEM) supplemented with CTL anti-aggregate wash. The cells were counted, resuspended at 2-6×10^5 cells per mL XF-TCEM supplemented with penicillin/streptomycin and 100 ng/mL […] (BioLegend, 579404), and cultured in tissue culture flasks coated with anti-CD3 (eBioscience, 16-0037-85 or BD Pharmingen, 555329) at 37° C. in 5% CO2. On day 4 of culture, PBMCs were collected, washed twice in RPMI-1640 supplemented with 0.1% BSA (RPMI-BSA), and incubated in RPMI-BSA in upright tissue culture flasks for ~4 hours at 37° C. in 5% CO2. Following this 'starvation,' a total of 6×10^4 cells in 30 μL RPMI-BSA was transferred into each well of a 384-well plate pre-spotted with peptide or DMSO. The cells were incubated for 30 minutes prior to the addition of […] at a final concentration of 5 ng/mL. The cells were stimulated with cytokine for 30 minutes at 37° C. in 5% CO2, transferred onto ice for 10 minutes, and lysed. Cell lysates were stored at -80° C. until phosphorylated STAT3 was measured using the phospho-STAT panel kit (Meso Scale Discovery, […]). Results are provided below. • A: IC50<0.5 nM; • B: 0.5 nM≤IC50<5 nM; • C: 5 nM≤IC50; • ND: Not determined

IL-23R = molecular target: T1, IL-23R (Homo sapiens, UniProt Q5VWK5); assay: IL23R Reporter Assay; assay type: cell-based; settings: HEK293 cells containing IL-23R, IL-12Rβ1 and STAT-inducible firefly luciferase reporter; 10 ng/mL IL-23 (EC90); 5 h
T1 construct: HEK293 cells containing IL-23R, IL-12Rβ1 and a firefly luciferase reporter gene driven by a STAT-inducible promoter (Promega); host or cells: HEK293
T1 sequence (Q5VWK5 24-629): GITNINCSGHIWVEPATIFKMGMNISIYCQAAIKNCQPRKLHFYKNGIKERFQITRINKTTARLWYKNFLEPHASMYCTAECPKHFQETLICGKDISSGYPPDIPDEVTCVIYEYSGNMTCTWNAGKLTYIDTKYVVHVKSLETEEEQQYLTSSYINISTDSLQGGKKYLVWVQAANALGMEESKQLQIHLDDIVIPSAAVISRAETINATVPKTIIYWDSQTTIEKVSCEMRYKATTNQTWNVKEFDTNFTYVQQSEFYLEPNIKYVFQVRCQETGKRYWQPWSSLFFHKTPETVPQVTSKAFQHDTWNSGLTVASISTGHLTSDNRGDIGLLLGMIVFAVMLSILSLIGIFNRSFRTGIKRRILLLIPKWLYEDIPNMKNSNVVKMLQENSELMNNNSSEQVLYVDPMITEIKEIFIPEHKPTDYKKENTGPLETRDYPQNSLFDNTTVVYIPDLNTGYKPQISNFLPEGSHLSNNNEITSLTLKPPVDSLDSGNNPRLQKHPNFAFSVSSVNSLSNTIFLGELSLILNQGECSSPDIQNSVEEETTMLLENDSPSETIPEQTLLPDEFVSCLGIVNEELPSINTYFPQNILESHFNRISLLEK
Outline: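 IC50 values were fitted with a 4-parameter Hill equation to luciferase signal, scaled between IL-23-only wells (0% inhibition) and 30 μM reference inhibitor (100%). The readout was a STAT-inducible reporter in IL-23R/IL-12Rβ1 HEK293 cells, stimulated with added 10 ng/mL IL-23 (EC90) for 5 h at 37° C and developed with BioGlo.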

Row | SMILES | IC50 [1] [nM] | IC50 (IL-23R) [nM]
1 | Cc1cccc2c1NCC2C[C@@H]1NC(=O)[C@H]([C@@H](C)O)NC(=O)[C@H](CC(=O)N(C)C)NC(=O)[C@@H](NC(=O)CCOCCOCCOCCOCC[N+](C)(C)C)C(C)(C)SSC(C)(C)[C@@H](C(=O)N[C@@H](Cc2ccc(OCCN)cc2)C(=O)N[C@@H](Cc2ccc3ccccc3c2)C(=O)NC2(C(=O)N[C@@H](CCC(=O)O)C(=O)N[C@@H](CC(N)=O)C(=O)N[C@@H](Cc3cccnc3)C(=O)N(C)[C@@H](CCCCNC(=O)COCCOCCOCCOCCOCCOCCOCCOCCOCCOCCOCCOCCNC(=O)CCCCCCCCCCCCCCCCC(=O)O)C(N)=O)CCOCC2)NC(=O)[C@H](CCN(C)C(=O)CCOCCOCCOCCOCC[N+](C)(C)C)NC1=O (some centres unmarked) [compound 136, cPEG5aCO-Pen(3)-N(N(Me)2)-T-7MeW-Dab(NMecPEG5a)-Pen(3)-AEF-2Nal-THP-E-N-3Pya-NMeK(PEG12C18OH)-CONH2] ({Me3N+CH2CH2(OCH2CH2)4CO}-[Pen]D(NMe2)T[Trp(7-Me,2,3-dihydro)][X6](Me3N+CH2CH2(OCH2CH2)4CO)[Pen][AEF][2Nal][Thp]EN[3Pal][NMeK](X13)-NH2; disulfide 1-6) | 0.5 to 5 | 50 to 500
2 | CC(=O)N(C)CCCC[C@@H]1NC(=O)[C@H](Cc2c[nH]c3c(C)cccc23)NC(=O)[C@H]([C@@H](C)O)NC(=O)[C@H](CCCCNC(=O)CCCCCOCCOCCOCCOCCOCCOCCOCCOCCOCCOCCOCCNC(=O)CC[C@H](NC(=O)CCCCCCCCCCCCCCCCC(=O)O)C(=O)O)NC(=O)[C@@H](NC(=O)CCOCCOCC[N+](C)(C)C)C(C)(C)SSC(C)(C)[C@@H](C(=O)N[C@@H](Cc2ccc(OCCCCC[N+](C)(C)C)cc2)C(=O)N[C@@H](Cc2ccc3ccccc3c2)C(=O)NC2(C(=O)N[C@@H](CCCCN(C)C(C)=O)C(=O)N[C@@H](CC(N)=O)C(=O)N[C@@H](Cc3cccnc3)C(=O)N(C)CC(=O)N(C)C)CCOCC2)NC1=O [compound 115, cPEG3aCO-Pen(3)-K(PEG12gEC20OH)-T-7MeW-K(NMeAc)-Pen(3)-TMAPF-2Nal-THP-K(NMeAc)-N-3Pya-Sar-CON(Me)2] ({Me3N+(CH2)2O(CH2)2O(CH2)2CO}-[Pen]K(X9)T[Trp(7-Me)][Lys(Me)](Ac)[Pen]Y(X1)[2Nal][Thp][Lys(Me)](Ac)N[3Pal][Sar]-NMe2; disulfide 1-6) | 0.5 to 5 | < 50
3 | CC(=O)N(C)CCCC[C@@H]1NC(=O)[C@H](Cc2c[nH]c3c(C)cccc23)NC(=O)[C@H]([C@@H](C)O)NC(=O)[C@H](CC(=O)N(C)C)NC(=O)[C@@H](NC(=O)[C@@H](CCCCNC(=O)COCCOCCNC(=O)COCCOCCNC(=O)CC[C@H](NC(=O)CCCCCCCCCCCCCCCCCCC(=O)O)C(=O)O)NC(=O)CCOCCOCC[N+](C)(C)C)C(C)(C)SSC(C)(C)[C@@H](C(=O)N[C@@H](Cc2ccc(OCCOCC[N+](C)(C)C)cc2)C(=O)N[C@@H](Cc2ccc3ccccc3c2)C(=O)NC2(C(=O)N[C@@H](CCCCN(C)C(C)=O)C(=O)N[C@@H](CC(N)=O)C(=O)N[C@@H](Cc3cccnc3)C(=O)N(C)CC(=O)N(C)C)CCOCC2)NC1=O [compound 129, cPEG3aCO-K(PEG2PEG2gEC20OH)-Pen(3)-N(N(Me)2)-T-7MeW-K(NMeAc)-Pen(3)-TMAPF-2Nal-THP-K(NMeAc)-N-3Pya-Sar-CON(Me)2] ({Me3N+(CH2)2O(CH2)2O(CH2)2CO}-[dK]([AEEA-AEEA-γGlu-C20 diacid])[Pen]D(NMe2)T[Trp(7-Me)][Lys(Me)](Ac)[Pen]Y(CH2CH2OCH2CH2NMe3+)[2Nal][Thp][Lys(Me)](Ac)N[3Pal][Sar]-NMe2; disulfide 2-7) | < 0.5 | < 50
4 | CC(=O)NCCCC[C@@H]1NC(=O)[C@H](Cc2c[nH]c3c(C)cccc23)NC(=O)[C@H]([C@@H](C)O)NC(=O)[C@H](CCCCNC(=O)CCC(=O)N[C@H](CC(=O)O)C[N+](C)(C)C)NC(=O)[C@@H](NC(=O)[C@H](CCCNC(=N)N)NC(C)=O)C(C)(C)SSC(C)(C)[C@@H](C(=O)N[C@@H](Cc2ccc(OCCN)cc2)C(=O)N[C@@H](Cc2ccc3ccccc3c2)C(=O)NC2(C(=O)N[C@@H](CCC(=O)O)C(=O)N[C@@H](CC(N)=O)C(=O)N[C@@H](Cc3cccnc3)C(=O)N(C)[C@@H](CCCCNC(=O)COCCOCCNC(=O)COCCOCCNC(=O)CC[C@H](NC(=O)CCCCCCCCCCCCCCCCC(=O)O)C(=O)O)C(N)=O)CCOCC2)NC1=O [compound 30, MeCO-r-Pen(3)-K(d)-T-7MeW-K(Ac)-Pen(3)-AEF-2Nal-THP-E-N-3Pya-NMeK(PEG2PEG2gEC18OH)-CONH2] (Ac-R[Pen]K([Suc-X2])T[Trp(7-Me)]K(Ac)[Pen][AEF][2Nal][Thp]EN[3Pal][NMeK]([AEEA-AEEA-γGlu-C18 diacid])-NH2; disulfide 2-7) | < 0.5 | < 50
